Laboratory results reported in US20150183737A1, “COMPOSITIONS AND METHODS FOR SUBSTRATE-SELECTIVE INHIBITION OF ENDOCANNABINOID OXYGENATION” (Vanderbilt University, priority 2012, published 2015).
Read-outs that look alike come from different tables or passages of the source.

How the values were obtained:
[1] = target: T1, COX-2 in RAW 264.7 macrophages (Mus musculus, UniProt Q05769); assay: RAW cells assay: oxygenation of 2-AG and AA; type: cell-based
T1 construct: endogenous in cells; host or cells: RAW 264.7 macrophages stimulated with LPS (and GM-CSF / interferon γ where described)
T1 sequence (Q05769 18-604): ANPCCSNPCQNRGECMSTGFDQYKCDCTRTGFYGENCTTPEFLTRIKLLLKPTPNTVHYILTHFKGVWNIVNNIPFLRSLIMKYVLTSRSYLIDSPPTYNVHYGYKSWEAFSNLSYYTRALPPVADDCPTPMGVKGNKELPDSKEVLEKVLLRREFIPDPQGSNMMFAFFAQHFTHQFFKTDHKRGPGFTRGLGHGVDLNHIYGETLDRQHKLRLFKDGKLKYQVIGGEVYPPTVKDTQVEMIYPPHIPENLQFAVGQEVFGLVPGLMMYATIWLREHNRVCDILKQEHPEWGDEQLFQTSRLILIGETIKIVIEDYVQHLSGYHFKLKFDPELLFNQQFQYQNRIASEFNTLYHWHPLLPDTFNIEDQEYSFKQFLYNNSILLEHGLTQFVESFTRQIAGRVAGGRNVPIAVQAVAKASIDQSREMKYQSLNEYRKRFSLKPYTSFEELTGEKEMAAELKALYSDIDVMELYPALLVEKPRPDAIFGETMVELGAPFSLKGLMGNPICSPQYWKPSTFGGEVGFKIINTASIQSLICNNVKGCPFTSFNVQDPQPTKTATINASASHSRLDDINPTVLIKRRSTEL
Method: Two hours after stimulation, varying doses of inhibitor were added to the cell media and 6 hr after stimulation the media were collected and analyzed by LC-MS-MS for prostaglandin levels.
The cells were then stimulated overnight with 20 ng/ml of granulocyte-macrophage colony-stimulating factor. The media was replaced in the morning with DMEM with GLUTAMAX® and the cells were stimulated with 100 ng/ml lipopolysaccharide and 20 units/ml interferon γ. Two hours after stimulation varying doses of inhibitor were added to the cell media and 6 hours after stimulation the media was collected and extracted in acidified ethyl acetate spiked with deuterated internal standards. The organic layer was dried down under a stream of nitrogen gas and reconstituted in 1:1 water:methanol and analyzed by LC-MS/MS for prostaglandin levels using the same instrumentation, column, solvents and conditions as described for the in vitro assay above.

[2] = In vivo mouse assay: plasma levels; set-up: species or system C57BL/6 mice; conditions: for concentration at 72 h: single 10 mg/kg i.p. injection
purified murine COX-2 = target: T2, purified murine COX-2 (Mus musculus, UniProt Q05769); assay: Inhibition of mCOX-2 dependent oxygenation of 2-AG and AA by profens in vitro; type: biochemical; set-up: made in house; host or cells: insect cells; conditions: achiral profens; for inhibition at 10 µM: at 10 μM inhibitor
T2 sequence (Q05769 18-604): T1 sequence (Q05769 18-604)
Method: Desired concentrations of inhibitor in DMSO or blank (DMSO) were incubated with mCOX-2 (40 nM) for 3 minutes in 100 mM Tris-HCl with 0.5 mM phenol, pH 8.0 at 37° C. After pre-incubation of enzyme and inhibitor, 5 μM of AA or 2-AG was added at 37° C. Thirty seconds later, the reaction was quenched with 200 μL of ice-cold ethyl acetate containing 0.5% acetic acid (v/v) and 1 μM PGE2-d4 and PGE2-G-d5. The solution was then vortexed and the aqueous layer frozen. The organic layer was removed and evaporated to near-dryness under nitrogen. The samples were reconstituted in 1:1 MeOH:H2O and chromatographed using a LUNA® C18(2) column (50 2 mm, 3 μm; Phenomenex, Torrance, Calif., United States of America). […] Analyte peak areas were normalized to the appropriate internal standard to determine the amount of product formation, and inhibition was determined by normalization to a DMSO control.

[3] = AA 5 μM, read-out: AA % Inhibition

| inhibition at 5 µM ([1]; RAW264.7, at 5 μM compound) [%] | Average plasma concentration ([2]; 10 mg/kg i.p. at 0, 8, 24, 32, 48 and 56 hr, sixteen hr after the last injection) | half-life ([2]; male, C57BL/6, mouse, plasma, intraperitoneal, 10 mg/kg, read-out: Half-life (t1/2) in mouse plasma) [h] | concentration at 72 h ([2]; 1 hr) [µM] | concentration at 72 h ([2]; 2 hr) [µM] | concentration at 72 h ([2]; 4 hr) [µM] | inhibition at 10 µM (purified murine COX-2; [3]) [%] | inhibition at 25 µM ([1]; RAW264.7, at 25 μM compound) [%] | IC50 ([1]; conversion of 2-AG to PGE2-G/PGD2-G) [µM] | IC50 (purified murine COX-2; murine COX-2 40 nM, 3 min preincubation, 2-AG 5 μM, 37° C., 30 s, mean ± SD, read-out: 2-AG IC50) [µM] | inhibition at 10 µM (purified murine COX-2; read-out: Maximum inhibition of 2-AG oxygenation, 2-AG 5 μM) [%] | Compound |
| --- | --- | --- | --- | --- | --- | --- | --- | --- | --- | --- | --- |
| 60 | not detected | 2 to 3 | 68 | 50 | 6 | 7 | – | – | – | – | O=C(O)Cc1ccc(-c2ccccc2)c(F)c1 [Compound 3a, 2-(2-fluoro-[1,1′-biphenyl]-4-yl)acetic acid] |
| – | – | – | – | – | – | 0 | 55 | 10.2 | 2.3 | 87 | O=C(O)C1(c2ccc(-c3ccccc3)c(F)c2)CC1 [Compound 5a, 1-(2-fluoro-[1,1′-biphenyl]-4-yl)cyclopropanecarboxylic acid] |
